{"source": "patent US6376510B1", "about": "“Neuromuscular relaxants” (Newlaxant LLC, priority 1997, dated 2002)", "key": {"[1]": {"system": "anesthetized rats (evoked responses of anterior tibial muscle)", "experiment": "In vivo neuromuscular block and cardiovascular side effects, anesthetized rat (Example 8, Table 3)", "method_in_brief": "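Pentobarbital-anesthetized (i.p.), ventilated adult male rats given saline-dissolved agents i.v.; anterior tibial EMG responses to supramaximal single or train-of-four sciatic/peroneal stimuli, plus 0.1 or 1 Hz stimulation. Doses for 50%, 80%, 90% block derived. Onset: minutes to 80-85% block; RI: 25-75% spontaneous recovery; vagal block, heart rate and blood pressure changes (%) at 80-85% blocking dose.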"}, "[2]": {"system": "anesthetized rats (evoked responses of anterior tibial muscle)", "experiment": "Muscle relaxant (neuromuscular blocking) properties, anesthetized rat (Example 9, Table 9)", "conditions": "for Onset: time to 80-85% neuromuscular block", "excerpt": "(§1) The data on muscle relaxant action were obtained on anesthetized rats, and when indicated, also on juvenile pigs\n(§2) Adult, male albino rats were anesthetized with pentobarbital injected intraperitoneally. Juvenile, Duroc pigs 9-12 kg body weight were anesthetized with Chloralose Nembutal sodium mixture intraperitoneally after deep sedation with inhaled halothane. The trachea was cannulated for artificial respiration via a small animal respirator. The carotid artery was cannulated for recording blood pressure via a transducer and heart rate by a cardiotachograph on a polygraph. One external jugular vein was cannulated for i.v. drug administration. Neuromuscular function was monitored by electromyography, recording evoked responses from the anterior tibial muscle as a result of supramaximal nerve stimuli consisting of single or “train-of-four” rectangular pulses of 0.1-0.2 msec duration every 10-12 seconds, delivered to the sciatic or common peroneal nerve by a laboratory nerve stimulator. Another mode of stimulation included repeated single stimuli delivered at 0.1 Hz or 1 Hz. […] The agents were dissolved in physiologic saline and injected intravenously at appropriate time intervals. The intensity, onset, and duration of neuromuscular block and its type were determined with each agent. Through administering several doses, the doses corresponding to 50%, 80% and 90% neuromuscular block were determined. All agents were compared with selected standard neuromuscular blocking compounds, e.g., rocuronium.\n(§3) Onset=time in minutes to 80-85% neuromuscular block.\n(§4) RI=recovery index, minutes, spontaneous recovery, 25-75% neuromuscular response.\n(§5) VB=vagal block, %, at 80-85% neuromuscular blocking dose.\n(§6) HR=change in heart rate, %, at 80-85% neuromuscular blocking dose.\n(§7) BP=change in arterial blood pressure, %, at 80-85% neuromuscular blocking dose."}, "dogs": {"system": "dogs", "experiment": "animal or person", "type": "in vivo", "conditions": "dog"}, "rabbits": {"system": "rabbits", "experiment": "In vivo neuromuscular block and cardiovascular side effects, rabbit (Example 8, Table 7)"}, "[3]": {"system": "anesthetized juvenile pigs", "experiment": "animal or person", "type": "in vivo", "conditions": "pig", "method_in_brief": "(§8)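 Electromyographic and mechanomyographic responses quantified. Monkeys sedated with intramuscular ketamine, then general anesthesia with intravenous pentobarbital and propofol; juvenile pigs induced with inhaled halothane.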"}, "[4]": {"system": "anesthetized cats (evoked responses of anterior tibial muscle)", "experiment": "animal or person", "method_in_brief": "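Adult cats anesthetized i.p. with 70 mg/kg alpha chloralose plus 0.5 g/kg ethylurethane; agents in saline given i.v. Anterior tibial muscle responses to supramaximal single or train-of-four stimuli of sciatic or peroneal nerve recorded electromyographically and mechanomyographically, alongside blood pressure and heart rate.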"}, "[5]": {"system": "anesthetized juvenile Duroc pigs", "experiment": "animal or person", "conditions": "for % VB at ED80 nmb (vagal block) / BP (change in arterial blood pressure) / HR (change in heart rate): in vivo; for RI (recovery index): spontaneous recovery, 25-75% neuromuscular response; for Onset: time to 80-85% neuromuscular block", "excerpt": "as §1, §2, §3, §4, §5, §6, §7"}, "anesthetized monkeys": {"system": "anesthetized monkeys", "experiment": "In vivo neuromuscular block and cardiovascular side effects, monkey (Example 8, Table 6)", "method_in_brief": "as §8"}, "[6]": {"conditions": "time to 80-85% neuromuscular block"}}}
{"compound": "C=CC[N+]1([C@H]2C[C@H]3[C@@H]4CC[C@H]5C[C@H](O)[C@@H](N6CCOCC6)C[C@]5(C)[C@H]4CC[C@]3(C)[C@H]2OC(C)=O)CCCC1", "note": "[Rocuronium, reference compound]", "values": [{"measurement": "ED50", "setting": "[1]; Rattus norvegicus, iv", "value": 0.45, "unit": "mg/kg"}, {"measurement": "VB (vagal block)", "setting": "[1]; male, rat, in vivo", "value": 60, "unit": "%"}, {"measurement": "ΔBP (change in arterial blood pressure)", "setting": "[1]; male, rat, in vivo", "value": 0, "unit": "%"}, {"measurement": "ΔH (change in heart rate)", "setting": "[1]; male, rat, in vivo", "value": 0, "unit": "%"}, {"measurement": "RI (recovery index)", "setting": "[1]; rat, in vivo", "value": 1.3, "unit": "min"}, {"measurement": "Onset", "setting": "[1]; rat, time to 80-85% neuromuscular block", "value": 0.95, "unit": "min"}, {"measurement": "ED50", "setting": "[2]; Rattus norvegicus, iv", "value": 0.45, "unit": "mg/kg"}, {"measurement": "% VB at ED80 nmb (vagal block)", "setting": "[2]; male, rat, in vivo", "value": 60, "unit": "%"}, {"measurement": "BP (change in arterial blood pressure)", "setting": "[2]; male, rat, in vivo", "value": 0, "unit": "%"}, {"measurement": "HR (change in heart rate)", "setting": "[2]; male, rat, in vivo", "value": 0, "unit": "%"}, {"measurement": "RI (recovery index)", "setting": "[2]; rat, in vivo", "value": 1.3, "unit": "min"}, {"measurement": "Onset", "setting": "[2]; rat", "value": 0.95, "unit": "min"}, {"measurement": "ED50", "setting": "dogs; Canis lupus familiaris, intravenous dose causing 50% neuromuscular block, read-out: ED50", "value": 0.076, "unit": "mg/kg"}, {"measurement": "RI (recovery index)", "setting": "dogs; in vivo", "value": 3.3, "unit": "min"}, {"measurement": "ΔBP (change in arterial blood pressure)", "setting": "dogs; in vivo", "value": 0, "unit": "%"}, {"measurement": "ΔH (change in heart rate)", "setting": "dogs; in vivo", "value": 0, "unit": "%"}, {"measurement": "Onset", "setting": "dogs; [6]", "value": 1.9, "unit": "min"}, {"measurement": "ED50", "setting": "rabbits; Oryctolagus cuniculus, intravenous dose causing 50% neuromuscular block, read-out: ED50", "value": 0.03, "unit": "mg/kg"}, {"measurement": "RI (recovery index)", "setting": "rabbits; in vivo", "value": 2.4, "unit": "min"}, {"measurement": "ΔBP (change in arterial blood pressure)", "setting": "rabbits; in vivo", "value": 0, "unit": "%"}, {"measurement": "ΔH (change in heart rate)", "setting": "rabbits; in vivo", "value": 0, "unit": "%"}, {"measurement": "Onset", "setting": "rabbits; [6]", "value": 1.1, "unit": "min"}, {"measurement": "ED50", "setting": "[3]; Sus scrofa, intravenous dose causing 50% neuromuscular block, read-out: ED50", "value": 0.35, "unit": "mg/kg"}, {"measurement": "RI (recovery index)", "setting": "[3]; in vivo", "value": 3.2, "unit": "min"}, {"measurement": "VB (vagal block)", "setting": "[3]; in vivo", "value": 47, "unit": "%"}, {"measurement": "ΔBP (change in arterial blood pressure)", "setting": "[3]; in vivo", "value": 0, "unit": "%"}, {"measurement": "ΔH (change in heart rate)", "setting": "[3]; in vivo", "value": 0, "unit": "%"}, {"measurement": "Onset", "setting": "[3]; [6]", "value": 1.5, "unit": "min"}, {"measurement": "ED50", "setting": "[4]; Felis catus, iv", "value": 0.185, "unit": "mg/kg"}, {"measurement": "ΔBP (change in arterial blood pressure)", "setting": "[4]; cat, in vivo", "value": 0, "unit": "%"}, {"measurement": "ΔH (change in heart rate)", "setting": "[4]; cat, in vivo", "value": 0, "unit": "%"}, {"measurement": "Onset", "setting": "[4]; cat, time to 80-85% neuromuscular block", "value": 2.1, "unit": "min"}, {"measurement": "RI (recovery index)", "setting": "[4]; in vivo", "value": 3.8, "unit": "min"}, {"measurement": "% VB at ED80 nmb (vagal block)", "setting": "[5]; Duroc, pig", "value": 47, "unit": "%"}, {"measurement": "BP (change in arterial blood pressure)", "setting": "[5]; Duroc, pig", "value": 0, "unit": "%"}, {"measurement": "HR (change in heart rate)", "setting": "[5]; Duroc, pig", "value": 0, "unit": "%"}, {"measurement": "ED50", "setting": "[5]; Sus scrofa, iv", "value": 0.35, "unit": "mg/kg"}, {"measurement": "RI (recovery index)", "setting": "[5]; pig", "value": 3.2, "unit": "min"}, {"measurement": "Onset", "setting": "[5]; pig", "value": 1.5, "unit": "min"}, {"measurement": "ED50", "setting": "anesthetized monkeys; Primates, intravenous dose causing 50% neuromuscular block, read-out: ED50", "value": 0.013, "unit": "mg/kg"}, {"measurement": "RI (recovery index)", "setting": "anesthetized monkeys; in vivo", "value": 5.6, "unit": "min"}, {"measurement": "ΔBP (change in arterial blood pressure)", "setting": "anesthetized monkeys; in vivo", "value": 0, "unit": "%"}, {"measurement": "ΔH (change in heart rate)", "setting": "anesthetized monkeys; in vivo", "value": 0, "unit": "%"}, {"measurement": "Onset", "setting": "anesthetized monkeys; [6]", "value": 3.5, "unit": "min"}]}
{"compound": "Bis[N-(3,4-diacetoxybenzyl)-6-azabicyclo[3.2.1]octanium-3-yl]cyclohexane-1,3-dicarboxylate dibromide", "values": [{"measurement": "% VB at ED80 nmb (vagal block)", "setting": "[2]; rat, in vivo", "value": "5 (2) %"}, {"measurement": "BP (change in arterial blood pressure)", "setting": "[2]; rat, in vivo", "value": 0, "unit": "%"}, {"measurement": "HR (change in heart rate)", "setting": "[2]; rat, in vivo", "value": 0, "unit": "%"}, {"measurement": "ED50", "setting": "[2]; rat, intravenous dose causing 50% neuromuscular block, spread in brackets", "value": "384 (42) μg/kg"}, {"measurement": "RI (recovery index)", "setting": "[2]; rat, spontaneous recovery, 25-75% neuromuscular response", "value": "0.5 (0.04) min"}, {"measurement": "Onset", "setting": "[2]; rat", "value": "0.7 (0.05) min"}, {"measurement": "% VB at ED80 nmb (vagal block)", "setting": "[5]; pig", "value": 70, "unit": "%"}, {"measurement": "BP (change in arterial blood pressure)", "setting": "[5]; pig", "value": 0, "unit": "%"}, {"measurement": "HR (change in heart rate)", "setting": "[5]; pig", "value": 0, "unit": "%"}, {"measurement": "ED50", "setting": "[5]; pig, intravenous dose causing 50% neuromuscular block", "value": 0.78, "unit": "mg/kg"}, {"measurement": "RI (recovery index)", "setting": "[5]; pig", "value": 0.85, "unit": "min"}, {"measurement": "Onset", "setting": "[5]; pig", "value": 0.5, "unit": "min"}]}
